According to ChEMBL document CHEMBL1154779, “Synthesis and adrenolytic activity of 1-(1H-indol-4-yloxy)-3-(2-(2-methoxy phenoxy)ethylamino)propan-2-ol analogs and its enantiomers. Part 2” (Eur J Med Chem, 2009):

Experiments:
Rattus norvegicus [1] = assay: Effect on heart rate in anesthetized Wistar rat assessed as QRS complex time at 1 mg/kg, iv after 1 min by electrocardiography; assay type: functional
Rattus norvegicus [2] = assay: Effect on heart rate in anesthetized Wistar rat assessed as QRS complex time at 1 mg/kg, iv after 5 mins by electrocardiography; assay type: functional
Rattus norvegicus [3] = assay: Effect on heart rate in anesthetized Wistar rat assessed as QRS complex time at 1 mg/kg, iv after 15 mins by electrocardiography; assay type: functional
Rattus norvegicus [4] = assay: Effect on heart rate in anesthetized Wistar rat assessed as Q-T intervals time at 1 mg/kg, iv after 1 min by electrocardiography; assay type: functional
Rattus norvegicus [5] = assay: Effect on heart rate in anesthetized Wistar rat assessed as Q-T intervals time at 1 mg/kg, iv after 5 mins by electrocardiography; assay type: functional
Rattus norvegicus [6] = assay: Effect on heart rate in anesthetized Wistar rat assessed as Q-T intervals time at 1 mg/kg, iv after 15 mins by electrocardiography; assay type: functional
Rattus norvegicus [7] = assay: Effect on heart rate in anesthetized Wistar rat assessed as heart beats per min at 1 mg/kg, iv after 1 min by electrocardiography; assay type: functional
Rattus norvegicus [8] = assay: Effect on heart rate in anesthetized Wistar rat assessed as P-Q intervals time at 1 mg/kg, iv after 1 min by electrocardiography; assay type: functional
Rattus norvegicus [9] = assay: Effect on heart rate in anesthetized Wistar rat assessed as P-Q intervals time at 1 mg/kg, iv after 15 mins by electrocardiography; assay type: functional
[10] = biological target: T1, Adrenergic receptor alpha-1 (Rattus norvegicus, UniProt P15823+P23944+P43140); assay: Displacement of [3H]Prazosin from alpha1 adrenergic receptor in Wistar rat cerebral cortex membrane by liquid scintillation counting; assay type: tissue-based
T1 sequence (P15823 whole entry): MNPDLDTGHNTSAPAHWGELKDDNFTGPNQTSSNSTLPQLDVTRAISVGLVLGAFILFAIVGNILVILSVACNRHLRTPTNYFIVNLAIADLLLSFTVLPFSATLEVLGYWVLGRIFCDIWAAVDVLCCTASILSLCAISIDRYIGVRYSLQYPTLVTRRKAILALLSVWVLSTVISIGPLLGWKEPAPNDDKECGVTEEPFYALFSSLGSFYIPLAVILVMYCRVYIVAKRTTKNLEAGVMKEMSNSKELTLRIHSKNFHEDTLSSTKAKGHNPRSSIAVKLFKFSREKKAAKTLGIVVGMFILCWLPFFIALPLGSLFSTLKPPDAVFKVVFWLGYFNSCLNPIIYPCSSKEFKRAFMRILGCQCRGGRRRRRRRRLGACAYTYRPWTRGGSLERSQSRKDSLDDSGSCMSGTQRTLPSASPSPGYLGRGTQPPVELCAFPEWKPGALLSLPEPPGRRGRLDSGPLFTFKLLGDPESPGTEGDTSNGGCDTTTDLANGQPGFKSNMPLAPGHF
T1 sequence (P23944 whole entry): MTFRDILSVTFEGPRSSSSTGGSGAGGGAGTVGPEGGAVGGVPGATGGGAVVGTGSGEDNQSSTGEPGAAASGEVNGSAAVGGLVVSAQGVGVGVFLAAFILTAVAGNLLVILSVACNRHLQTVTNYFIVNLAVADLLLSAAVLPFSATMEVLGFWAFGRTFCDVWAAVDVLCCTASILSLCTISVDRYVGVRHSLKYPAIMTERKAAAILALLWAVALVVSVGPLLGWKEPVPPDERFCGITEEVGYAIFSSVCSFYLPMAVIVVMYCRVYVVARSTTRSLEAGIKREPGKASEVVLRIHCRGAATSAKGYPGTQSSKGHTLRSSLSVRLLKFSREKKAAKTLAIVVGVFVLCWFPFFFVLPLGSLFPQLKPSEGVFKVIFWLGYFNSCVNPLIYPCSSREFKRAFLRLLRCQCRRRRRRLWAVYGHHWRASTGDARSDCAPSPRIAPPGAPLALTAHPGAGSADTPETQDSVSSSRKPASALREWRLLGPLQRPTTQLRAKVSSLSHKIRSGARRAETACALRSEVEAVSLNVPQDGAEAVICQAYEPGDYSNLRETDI
T1 sequence (P43140 whole entry): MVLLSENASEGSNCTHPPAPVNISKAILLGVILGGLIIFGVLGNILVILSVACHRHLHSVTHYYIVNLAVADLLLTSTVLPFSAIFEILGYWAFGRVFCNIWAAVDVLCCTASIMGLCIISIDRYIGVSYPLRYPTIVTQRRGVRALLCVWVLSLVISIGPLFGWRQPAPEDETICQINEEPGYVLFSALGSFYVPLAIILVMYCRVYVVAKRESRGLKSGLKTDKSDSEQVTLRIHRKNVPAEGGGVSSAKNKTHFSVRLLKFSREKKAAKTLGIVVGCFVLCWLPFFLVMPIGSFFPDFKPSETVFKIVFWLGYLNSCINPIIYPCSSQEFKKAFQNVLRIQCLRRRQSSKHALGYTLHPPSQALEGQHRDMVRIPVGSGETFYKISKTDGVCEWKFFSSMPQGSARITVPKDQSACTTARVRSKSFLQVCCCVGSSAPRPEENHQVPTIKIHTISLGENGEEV

SMILES | Ki [10] [nM] | Activity (Rattus norvegicus [1]) [ms] | Activity (Rattus norvegicus [2]) [ms] | Activity (Rattus norvegicus [3]) [ms] | Activity (Rattus norvegicus [4]) [ms] | Activity (Rattus norvegicus [5]) [ms] | Activity (Rattus norvegicus [6]) [ms] | Activity (Rattus norvegicus [7]) [bpm] | Activity (Rattus norvegicus [8]) [ms] | Activity (Rattus norvegicus [9]) [ms]
COc1ccccc1OCCNCC(O)COc1ccc(OC)c2[nH]ccc12 (racemic) | 75.8 | 24.2 | 23 | 22.7 | 87.1 | 79.2 | 79.2 | 297.3 | 58.8 | 57.3
COc1ccccc1OCCNC[C@@H](O)COc1c(OC)ccc2[nH]ccc12 | 45.8 | 28 | 28.7 | 28.7 | 106.7 | 106 | 113.3 | 395.5 | 45.3 | 42
COc1ccccc1OCCNC[C@H](O)COc1c(OC)ccc2[nH]ccc12 | 11.3 | 26 | 28.7 | 28 | 107.3 | 111.3 | 118 | 388.1 | 48.7 | 46
COc1ccccc1OCCNCC(O)COc1c(OC)ccc2[nH]ccc12 (racemic) | 21.1 | 31.3 | 27.3 | 26 | 111.4 | 107.3 | 118 | 376.3 | 48.7 | 48

Second part, led by results:

Ki [10] [nM] | SMILES | Activity (Rattus norvegicus [1]) [ms] | Activity (Rattus norvegicus [2]) [ms] | Activity (Rattus norvegicus [3]) [ms] | Activity (Rattus norvegicus [4]) [ms] | Activity (Rattus norvegicus [5]) [ms] | Activity (Rattus norvegicus [6]) [ms] | Activity (Rattus norvegicus [7]) [bpm] | Activity (Rattus norvegicus [8]) [ms] | Activity (Rattus norvegicus [9]) [ms]
168.8 | COc1ccccc1OCCNC[C@H](O)COc1ccc(OC)c2[nH]ccc12 | 25 | 24.5 | 22.5 | 78.8 | 94.8 | 83 | 292 | 58.5 | 53.3
60.9 | COc1ccccc1OCCNC[C@@H](O)COc1ccc(OC)c2[nH]ccc12 | 22.7 | 23.3 | 24.5 | 89.2 | 88 | 81.7 | 267.4 | 58.5 | 58
